Laboratory results taken from PubChem BioAssay (NCI).
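GI50 = concentration required for 50% inhibition of growth. The concentration for full growth arrest is given as TGI.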

How the values were obtained:
Test in all cases: NCI-60 cell line screen, 384-well format
[1] = tested on: LOX IMVI melanoma
[2] = tested on: HOP-92 NSCLC
[3] = tested on: IGROV1 ovarian
[4] = tested on: OVCAR-8 ovarian
[5] = tested on: MALME-3M melanoma
[6] = tested on: U251 glioblastoma
[7] = tested on: HL-60(TB) leukemia
[8] = tested on: OVCAR-4 ovarian
[9] = tested on: SF-268 CNS
[10] = tested on: SK-MEL-28 melanoma
[11] = tested on: HCT-116 colon
[12] = tested on: OVCAR-3 ovarian
[13] = tested on: CCRF-CEM leukemia

With `COc1ccc([C@@H](O)c2cc(-c3ncnc4cc(N5CCOCC5)ccc34)c(F)cc2Cl)nn1` the GI50 [1] was 1.81 µM, the TGI [1] was 4.44 µM and the GI50 [2] was 0.583 µM. It also gave a TGI [2] of 5.19 µM, a GI50 [3] of 0.682 µM and a TGI [3] of 2.45 µM. The GI50 [4] was 3.97 µM, the TGI [4] was 22.4 µM and the GI50 [5] was 1.66 µM. For the same molecule, the TGI [5] was 10.7 µM, the GI50 [6] was 8.43 µM and the TGI [6] was 26.1 µM. For the same molecule, the GI50 [7] was 0.522 µM, the TGI [7] was 1.94 µM and the GI50 [8] was 5.02 µM. For the same molecule, the TGI [8] was 26.2 µM, the GI50 [9] was 6.38 µM and the TGI [9] was 26.8 µM. For the same molecule, the GI50 [10] was 2.39 µM, the TGI [10] was 27.8 µM and the GI50 [11] was 3.88 µM. The TGI [11] was 16.4 µM, the GI50 [12] was 1.17 µM and the TGI [12] was 9.62 µM. For the same molecule, the GI50 [13] was 2.2 µM and the TGI [13] was 7 µM.
